The record followed here is patent publication US12178838B2, “Synthetic neuromodulatory peptides” (Lactocore, Inc., priority 2019, dated 2024).

Assay [1] addresses hippocampal NMDA receptors. Description: Radioligand analysis of NMDA receptors with [3H] (+) MK-801. The class given is binding, rat. As to conditions: [3H] (+) MK-801, room temperature, 2 hours; read-out: IC50 of displacement curve. An excerpt:
Hippocampal plasma membranes were isolated using modified methods (Zhou et al. (1997). (2S,4R)-4-methylglutamic acid (SYM 2081): a selective, high-affinity ligand for kainate receptors. J. Pharmacol. Exp. Ther., 280(1), 422-427, LePage et al. (2005). Differential binding properties of [^3H] dextrorphan and [^3H] MK-801 in heterologously expressed NMDA receptors. Neuropharmacol., 49(1), 1-16). After decapitation, the tissue was immediately frozen in liquid nitrogen and stored in a low-temperature refrigerator at −80° C. On the day of the experiment, the hippocampi were homogenized “Teflon-glass” in a Potter homogenizer in 10 volumes of buffer No. 1 (5 mM HEPES, 4.5 mM Tris, 0.32 M Sucrose, pH 7.6). The homogenate was diluted with 50 volumes of buffer No. 2 (5 mM HEPES, 4.5 mM Tris, pH 7.6) and centrifuged at 1000 g for 10 minutes on an Optima L-70K ultracentrifuge (Beckman Coulter). The supernatant was […] and centrifuged again at 25000 g for 20 minutes. To increase the protein yield, this operation was performed twice. The resulting precipitate was resuspended in 50 volumes of buffer No. 2 and centrifuged at 8000 g for 20 minutes. […]
The IC50 value with respect to the binding of labeled ligands was determined by adding 50 μl of the test compounds to the incubation medium at final concentrations of 10^−10-10^−4 M. The volume of the incubation mixture was 500 μl. […]

Assay [2] relates to Wistar rats. Description: Learned helplessness model: Porsolt forced swimming test, one-day modification. Format: in vivo. Particulars: Maprotiline 4.5 mg/kg i/p; FQSE 0.5 mg/kg i/n. The procedure:
(§1) Weigh was measured on an analytical balance, with an accuracy of 0.0001 g, the solution was prepared with a margin of 0.5 ml.
(§2) The tetracyclic antidepressant Maprotiline (Lyudiomil), a monoamine reuptake inhibitor, was used as a positive control. Animals received a daily intraperitoneal injection (i.p) of Maprotiline for ten days (M9651, Merck, 4.5 mg/kg, dissolved in saline: 200 μl per administration).
(§3) The state of “learned helplessness” according to modern concepts adequately reflects anxiety-depressive syndrome, reproducing the main signs of a person's endogenous depression, including the severity of effects of helplessness, hopelessness, and characteristic endocrine disorders. To develop LH, rats were subjected to uncontrolled unavoidable aversive stress (electro cutaneous irritation). […] Stimulation was performed automatically using a software randomizer.
(§4) “LH”—a group of animals subjected to stress, in which a depressive state of “learned helplessness” was developed. Pharmacotherapy was not performed in the LH group; the development of experimental depression was studied. […] “LH+Map.”—the comparison drug group. Maprotiline was injected intraperitoneally at a dosage of 4.5 mg/kg ten days daily to develop experimental depression.

Assay [3] concerns Wistar rats. Description: Learned helplessness model: Elevated Plus-Maze test. Format: in vivo. Particulars: Map 4.5 mg/kg i/p; FQSE 0.5 and 2.5 mg/kg i/n. The protocol: Weigh was measured on an analytical balance, with an accuracy of 0.0001 g, the solution was prepared with a margin of 0.5 ml. For the experiment, a freshly prepared FQSE (SEQ ID NO:10) solution was used; for the second day, this solution was stored in a refrigerator at +4° C. The tetracyclic antidepressant Maprotiline (Lyudiomil), a monoamine reuptake inhibitor, was used as a positive control. […] The classical paradigm of “learned helplessness” (LH) was used as an experimental model of depression ([…] et al. (1975). Learned helplessness in the rat. J. Comp. Physiol. […] The state of “learned helplessness” according to modern concepts adequately reflects anxiety-depressive syndrome, reproducing the main signs of a person's endogenous depression, including the severity of effects of helplessness, hopelessness, and characteristic endocrine disorders. To develop LH, rats were subjected to uncontrolled unavoidable aversive stress (electro cutaneous irritation). […] Stimulation was performed automatically using a software randomizer. […] The time spent by the animal inside and outside the closed arms (in the open arms and in the center), the number of transitions between the arms, the number of stretch-attended postures were evaluated. […]

Assay [4] has as its system Wistar rats. Description: Learned helplessness model: Open Field test. Format: in vivo. The protocol:
as §1, §2, §3
The Open Field test is a classic method for assessing the level of motor activity and exploratory behavior of rodents in new stressogenic conditions. […] On the 5th day after stressing in the LH model, the rat was placed in the center of the OF. The following parameters were measured for 5 minutes: latency to start of moving, the number of crossed squares (outside, intermediate and central), the duration of the rears and immobilization time.
as §4

The subject of assay [5] is corticosterone in rat plasma. Description: Learned helplessness model: plasma corticosterone and dexamethasone test. Format: in vivo, rats. The protocol: On the first day of the test (DXMT1) at 10:00 AM, animals were injected intraperitoneally with saline, then at 04:00 PM on the same day peripheral blood samples were taken to determine the basal level of the hormone, which caused stress, and 30 minutes after taking the rat from the cage and receiving initial sample, re-taken blood to measure hormone stress level.
To study the sensitivity of the HPA system to feedback signals, rats were injected with dexamethasone (10 μg/kg, intraperitoneally) the next day (DXMT2) at 10 am. The procedure for taking blood from the tail vein was repeated after 6 and 6.5 hours. The corticosterone content was determined by enzyme-linked immunosorbent assay with reagent kits “Corticosterone-ELISA” (“Hema”, RF) in two parallel samples.
as §4

The next assay has as its system p-PKC (PKC gamma Thr514). Description: Western blot of brain homogenates after CRS: p-PKC. The class given is in vivo, rats. The protocol: (§5) To simulate a depressive state, experimental animals were placed in the individual restrainers (“Open Science”, Russia) for six hours daily for 14 days (hereinafter “chronic restraint stress=CRS”). […] The administration of drugs was carried out daily, 30 minutes before placing rats in the restrainers.
(§6) At the end of the behavioral examination, the rats were decapitated, and their brains extracted for subsequent western blot analysis. A total of 51 samples of homogenized brain tissue from Sprague-Dawley rats (3-4 months old) were received from the Customer. 25 samples were homogenates of the cerebral cortex, 26 samples were homogenates of the hippocampus isolated from rat brain. The amount of homogenized tissue in each sample was less than 50 mg. […] They were Incubated in ice for 30 minutes. Then the samples were centrifuged at 12000 g, 15 minutes, +4° C.
(§7) All the steps necessary for the analysis of protein levels of BDNF, p-p70S6k (Thr421/Ser424), p-ERK (one and two), (Thr202/Tyr204), p-GSK3β (Ser9), p-PKC (PKCG gamma Thr514) and the GAPDH reference protein were provided in the studied samples using Western blotting. […]
(§8) The integral areas of the spots obtained were calculated as a quantitative assessment and then normalized to the amount of protein in the sample.
On the technique in general: Immunoblotting shows a protein as a band on a membrane.

For a further assay, the system named is p-p70S6k (Thr421/Ser424). Nature of the assay: Western blot of brain homogenates after CRS: p-p70S6k. As to conditions: fluoxetine 5 mg/kg. The class given is in vivo, rats. The procedure: as §5, §6, §7, §8
For a further assay, the system named is Sprague-Dawley rats. Nature of the assay: Chronic restraint stress model: Porsolt Forced Swimming test. Format: in vivo. As to conditions: CRS, FQSE 3 mg/kg intranasal. The procedure:
To simulate a depressive state, experimental animals were placed in the individual restrainers (“Open Science”, Russia) for six hours daily for 14 days (hereinafter “chronic restraint stress=CRS”). In order to study the neurotrophic effect of FQSE (SEQ ID NO:10), the animals were divided into 5 groups, 10 individuals each. The groups are as follows: Group 1, control unstressed animals, receiving 10 μl (a pair of 5 μl doses) of saline intranasally; Group 2, stressed animals, receiving 10 pI of saline intranasal (CRS+Veh); Group 3, stressed animals, receiving fluoxetine (FO) at a dose of 5 mg/kg intraperitoneal (CRS+FO, positive control); Group 4, stressed animals, receiving a peptide drug at a dose of 0.3 mg/kg in 10 pI of saline intranasal (CRS+FQSE (SEQ ID NO:10) 0.3); Group 5, stressed animals, receiving a peptide drug at a dose of 3 mg/kg in […] of saline intranasal (CRS+FQSE (SEQ ID NO:10) 3). The administration of drugs was carried out daily, 30 minutes before placing rats in the restrainers. […]
The changes in motor activity and emotional state of animals were evaluated in the Open Field (OFT) and Porsolt Forced Swimming tests (FST) fourteen days after the start of the experiment. […] For three minutes the horizontal and vertical motor activity was measured. The total number of crossed squares, as well as the length of the distance, traveled, and the number of rears was counted. […]

The subject of the next assay is p-ERK 2 (Tyr204). Description: Western blot of brain homogenates after CRS: p-ERK2. The class given is in vivo, rats. As to conditions: fluoxetine 5 mg/kg; FQSE 0.3 mg/kg; against stress and control levels. The procedure: as §5, §6, §7, §8
The next assay deals with BDNF. Description: Western blot of brain homogenates after CRS: BDNF. Format: in vivo, rats. As to conditions: fluoxetine 5 mg/kg. The procedure:
as §5, §6, §7, §8

A further assay has as its system p-GSK3β (Ser9). Nature of the assay: Western blot of brain homogenates after CRS: p-GSK3β. The class given is in vivo, rats. As to conditions: fluoxetine; FQSE. The procedure: as §5, §6, §7, §8

One may read the IC50 as the concentration at which inhibition is half-maximal. For the compound `C[C@]12N[C@H](Cc3ccccc31)c1ccccc12` [MK-801], the concentration for half-maximal inhibition (IC50) in assay [1] stood at 7 nM.
Consider `CNCCCC12CCC(c3ccccc31)c1ccccc12` [Maprotiline], for which, in the assay on Wistar rats [2], the active swimming time entry was “increase in active swimming time” and the time spent immobile result is “significant reduction”. The “appearance on the open arms” value in the assay on Wistar rats [3] was “did not reach statistical significance”. Besides, the “vertical activity (rears)” value in the assay with Wistar rats [4] (FQSE 0.5 mg/kg i/n, Map 4.5 mg/kg i/p) is on record as “did not differ”. The “freezing time when placed in the center of the OF” value in the assay on Wistar rats [4] (FQSE 2.5 mg/kg i/n, Maprotiline 4.5 mg/kg i/p, daily, vs LH group) is “significant decrease”. Besides, in the assay with Wistar rats [4] (Maprotiline 4.5 mg/kg i/p, FQSE 2.5 mg/kg i/n), the “decrease in the number of animals showing immobilization after LH” value worked out at 2.3 fold. Also, in [5] (LH + FQSE 0.5, LH + Map.), the “magnitude of suppression—Δ between the Saline and DXM in the stress level of corticosterone” value came out at 248.5 nmol/L. Further, the “suppression of the stress-induced increase in CS in blood after DXM” value in assay [5] (Map 4.5 mg/kg, FQSE 0.5 mg/kg) was “significant suppression”. Moreover, the “basal level of corticosterone (CS) in plasma” value in [5] (Map, FQSE in both doses (0.5, 2.5 mg/kg), vs LH group) was “significantly lower level of CS”.
With `CNCCC(Oc1ccc(C(F)(F)F)cc1)c1ccccc1` (stereo not drawn) [fluoxetine], in the assay with p-PKC (PKC gamma Thr514) (fluoxetine 5 mg/kg, FQSE 0.3 mg/kg), the “levels of p-PKC (Thr 514) in the cerebral cortex” value is recorded as “showed no changes”. The “normalization of p-PKC levels in the hippocampus” value in the assay on p-PKC (PKC gamma Thr514) (fluoxetine, FQSE) is on record as “neither fluoxetine nor peptide FQSE (SEQ ID NO:10) contributed to the normalization”. The “levels of p-p70S6k in cerebral cortex or hippocampus” value with p-p70S6k (Thr421/Ser424) was “showed no relation”. For the same compound, in the assay on Sprague-Dawley rats (FO 5 mg/kg intraperitoneal), the “duration of active swimming” value is “no effect”. In addition, in the assay on Sprague-Dawley rats (FO 5 mg/kg, vs CRS+Veh), the “time spent passive (inactive) swimming” value is recorded as “had no effect”. Further, the “cortical levels of p-ERK 2 (Tyr204)” value in the assay with p-ERK 2 (Tyr204) was “decreased”. For the same compound, the “levels of BDNF protein in cerebral cortex and hippocampus” value with BDNF is given as “showed no relation”. The “p-GSK3β in the hippocampus” value with p-GSK3β (Ser9) is reported as “no response”.
